Positions of bridges follow the written chain, without caps; N, C: chain ends. No end group written: not given here.
B1: TAX2 cyclic peptide (peptide)
peptide: CEVSQLLKGDAC
modifications: disulfide 1-12 (inferred); also: acetate salt
notes: disulfide linked 12 amino-acid cyclic peptide stretch of CD47; The two end residues are replaced by cysteines to close the ring; also called TAX2 peptide; TAX2 drug candidate; source: synthetic peptide (solid-phase synthesis, Fmoc chemistry; Genecust), purity >98%

How the values were obtained:
[1] = 0.25 to 20 mg/mL in MilliQ water, 0.9% NaCl or 0.9% NaCl with 15 mM Tris; from lyophilized powder; A205, path length 0.05 cm, compared to powder weighing
Experimental: Absorbance values at 205 nm were measured on a NanoVue Plus^TM spectrophotometer (GE Healthcare, Chicago, IL, USA) using a quartz cuvette with a 0.05 cm path length.

[2] = test system: A2780 human ovarian carcinoma cells; conditions: A2780 model, 10 mg/kg i.p. thrice a week for 2 weeks
Experimental: (§1) Suspensions of A2780 or SK-OV-3 human ovarian carcinoma cells were s.c. inoculated (5 × 10^6 cells in 200 µL per animal) into the left flank of BALB/c athymic nude mice. Tumor measurements (length, L; width, W) were performed twice a week, using a digital caliper, and total tumor volume was calculated according to V = 0.5 × L × W^2. For randomization, mice were allocated to groups (n = 13–16 in each) based on similar mean and distribution of tumor volume on day 13. […] Body weight (BW) was monitored every 2 to 3 days, while clinical signs and behavior pattern were daily checked until study termination. Loss of 15% BW or tumor volume exceeding 1 cm^3 were considered an indication for euthanasia, as well as severe tumor necrosis, as it was sometimes associated with loss of body fluid and/or infection.

[3] = test system: SK-OV-3 human ovarian carcinoma cells; conditions: SK-OV-3 model, 10 mg/kg i.p. thrice a week for 7 weeks
Experimental: as §1

platelets = experiment: Washed platelets flow cytometry analysis of activation (CD62P); assay type: cell-based, mouse; conditions: washed platelets pooled from 4 treated ID8 tumor-bearing mice per group; resting and 3.33 U/mL thrombin; CD62P exposure
Experimental: Washed platelets were freshly prepared as described elsewhere from a pool of 4 mouse blood samples by treatment group (ID8 allograft i.p. model). […] To promote activation, platelets were incubated with 3.33 U.mL^−1 thrombin (#D8537, Sigma-Aldrich) for 5 min, at room temperature. Platelets were probed with both a (FITC)-conjugated monoclonal anti-CD41 antibody (clone MWReg30; #553848, BD Pharmingen) and a (PE)-conjugated monoclonal anti-CD62P antibody (clone Wug.E9; #M130-2, Emfret Analytics) for 10 min, at room temperature, in the dark. IgG1-PE (clone R3-34; #P190_2, Emfret Analytics) and IgG1-FITC (clone R3-34; #553924, BD Pharmingen) were employed as isotype controls. Platelet isolation was performed by gating in forward and side scatter, as well as relying on CD41 positivity, while CD62P (P-selectin) membrane exposure reflects platelet activation.
Figure S2. […] 8 weeks old female and
(a) Photographs of spleen isolated on
Whitney U test statistical analyses (* p < 0.05).
mice having received chronic TAX2 or combination therapy. Upon sacrifice, blood was collected from
samples by treatment group.
investigated by flow cytometry. Platelet population was isolated based on anti‐CD41 positivity,
Activation was analyzed on […]

[4] = freshly collected EDTA plasma from Sprague Dawley rats, 500 µL, spiked at 50 ng/mL, 2 h at 4 °C or room temperature, sampled every 30 min, HPLC-MS/MS, n = 2 per condition (method b35: 1 µM, 37 °C, human plasma)
[5] = target: T1, recombinant mouse thrombospondin-1 with a C-terminal 6His tag (mouse, UniProt P35441 19-1170); experiment: SPR; Biacore T200; rmTSP-1 captured by its C-terminal 6His tag on anti-histidine antibody amine-coupled to a CM5 chip (2931 RU); peptides injected for 120 s at 30 uL/min, 25 °C; running buffer 10 mM HEPES, 0.15 M NaCl, 0.05% surfactant P20, 5 mM CaCl2, pH 7.4; single injections at 1 mM; single-cycle kinetics at 15.625-250 uM; contact-time experiment (30-600 s) at 500 uM TAX2; two-state reaction model, apparent KD; conditions: both partners purified
T1 construct: thrombospondin-1 (TSP-1), mouse, recombinant; also called rmTSP-1; TSP-1; source: bought: R&D Systems (#7859-TH); not shown: 6His, C-terminal, kept
T1 sequence (P35441 19-1170): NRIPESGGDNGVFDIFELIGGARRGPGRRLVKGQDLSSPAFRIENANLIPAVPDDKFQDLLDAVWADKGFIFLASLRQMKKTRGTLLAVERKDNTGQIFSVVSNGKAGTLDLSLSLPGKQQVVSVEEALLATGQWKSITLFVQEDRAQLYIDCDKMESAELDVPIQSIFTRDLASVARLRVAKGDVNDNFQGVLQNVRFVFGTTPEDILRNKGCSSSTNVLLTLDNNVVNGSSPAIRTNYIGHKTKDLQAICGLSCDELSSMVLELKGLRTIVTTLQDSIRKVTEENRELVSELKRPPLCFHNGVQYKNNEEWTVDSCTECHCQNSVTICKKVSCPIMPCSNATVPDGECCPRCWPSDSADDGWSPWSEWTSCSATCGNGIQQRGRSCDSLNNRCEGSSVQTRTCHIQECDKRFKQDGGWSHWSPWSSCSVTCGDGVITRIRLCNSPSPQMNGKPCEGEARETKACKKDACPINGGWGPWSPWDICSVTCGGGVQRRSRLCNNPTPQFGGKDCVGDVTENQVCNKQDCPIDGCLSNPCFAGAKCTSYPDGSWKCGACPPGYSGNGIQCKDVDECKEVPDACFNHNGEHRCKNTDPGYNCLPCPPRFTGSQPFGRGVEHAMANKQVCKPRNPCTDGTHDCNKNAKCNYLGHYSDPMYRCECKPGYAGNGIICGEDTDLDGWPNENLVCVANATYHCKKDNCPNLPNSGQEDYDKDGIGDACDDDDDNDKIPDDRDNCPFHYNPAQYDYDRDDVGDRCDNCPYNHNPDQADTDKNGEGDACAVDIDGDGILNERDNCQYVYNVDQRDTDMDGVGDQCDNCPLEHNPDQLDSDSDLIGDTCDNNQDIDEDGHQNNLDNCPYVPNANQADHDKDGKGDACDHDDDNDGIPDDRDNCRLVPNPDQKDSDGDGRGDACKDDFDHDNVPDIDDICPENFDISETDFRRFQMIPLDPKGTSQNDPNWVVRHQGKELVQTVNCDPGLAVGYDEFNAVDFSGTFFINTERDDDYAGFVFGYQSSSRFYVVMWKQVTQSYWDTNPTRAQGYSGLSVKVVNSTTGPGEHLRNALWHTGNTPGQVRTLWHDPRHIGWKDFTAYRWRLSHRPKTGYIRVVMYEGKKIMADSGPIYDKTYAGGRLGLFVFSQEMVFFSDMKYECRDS

| Molecule | solubility in aqueous solvents [1] | safety (body weight, clinical signs) [2] | safety (body weight, clinical signs) [3] | impact on platelet ability to activate (platelets) | stability in plasma (remaining TAX2, % of concentration at T0) [4] | binding result [5] |
| --- | --- | --- | --- | --- | --- | --- |
| CC(C)C[C@@H]1NC(=O)[C@H](CC(C)C)NC(=O)[C@H](CCC(N)=O)NC(=O)[C@H](CO)NC(=O)[C@H](C(C)C)NC(=O)[C@H](CCC(=O)O)NC(=O)[C@@H](N)CSSC[C@@H](C(=O)O)NC(=O)[C@H](C)NC(=O)[C@H](CC(=O)O)NC(=O)CNC(=O)[C@H](CCCCN)NC1=O [TAX2] | completely soluble | appeared to be safe | appeared to be safe | Neither TAX2 monotherapy nor combined to anti-PD-1 mAb had any impact | remains stable in freshly collected plasma up to 2 hours | – |
| B1 | – | – | – | – | – | binds |

Source: article PMC8508526 (Cancers, 2021)
